Data as given in ChEMBL document CHEMBL1212717, “A new screening assay for allosteric inhibitors of cSrc” (Nat Chem Biol, 2009).

Experiments:
[1] = molecular target: T1, Mitogen-activated protein kinase 14 (Homo sapiens, UniProt Q16539)
[2] = molecular target: T2, Proto-oncogene tyrosine-protein kinase Src (Homo sapiens, UniProt P12931)
[3] = molecular target: T1, Mitogen-activated protein kinase 14; conditions: 2 uM
[4] = molecular target: T2, Proto-oncogene tyrosine-protein kinase Src; conditions: 2 uM

T1 sequence (Q16539 whole entry): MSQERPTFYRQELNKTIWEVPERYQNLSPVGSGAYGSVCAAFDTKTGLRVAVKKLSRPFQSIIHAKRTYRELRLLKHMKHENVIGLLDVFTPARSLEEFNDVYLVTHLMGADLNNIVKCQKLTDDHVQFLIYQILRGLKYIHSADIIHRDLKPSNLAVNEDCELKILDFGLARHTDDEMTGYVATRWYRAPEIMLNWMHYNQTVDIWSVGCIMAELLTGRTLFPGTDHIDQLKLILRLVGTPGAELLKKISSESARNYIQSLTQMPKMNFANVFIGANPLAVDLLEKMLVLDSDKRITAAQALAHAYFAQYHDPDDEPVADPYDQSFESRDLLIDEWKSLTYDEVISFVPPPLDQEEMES
T2 sequence (P12931 2-536 limits assumed): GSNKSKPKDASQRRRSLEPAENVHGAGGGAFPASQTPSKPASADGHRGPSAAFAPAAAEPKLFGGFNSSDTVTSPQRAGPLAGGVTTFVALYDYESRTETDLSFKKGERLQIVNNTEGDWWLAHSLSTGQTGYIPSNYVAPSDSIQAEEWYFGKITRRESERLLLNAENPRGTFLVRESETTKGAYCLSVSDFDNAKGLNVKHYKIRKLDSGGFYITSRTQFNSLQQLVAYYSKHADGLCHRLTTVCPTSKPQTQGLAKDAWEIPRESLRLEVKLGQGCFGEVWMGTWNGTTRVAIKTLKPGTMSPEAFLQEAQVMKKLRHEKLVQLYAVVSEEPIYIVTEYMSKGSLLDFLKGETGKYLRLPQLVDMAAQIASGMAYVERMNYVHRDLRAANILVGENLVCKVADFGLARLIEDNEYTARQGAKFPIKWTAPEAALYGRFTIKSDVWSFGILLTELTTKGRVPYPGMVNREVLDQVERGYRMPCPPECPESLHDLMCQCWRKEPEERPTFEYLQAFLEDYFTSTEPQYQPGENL

| SMILES | Kd [1] | IC50 [2] | T1/2 [3] | T1/2 [4] |
| --- | --- | --- | --- | --- |
| CC(C)(C)c1cc(NC(=O)Nc2ccc(Cl)cc2)n(-c2c(Cl)cc(C(F)(F)F)cc2Cl)n1 | Not Active | Not Active | – | – |
| CC(C)(C)c1cc(NC(=O)Nc2ccc(Cl)cc2)n(-c2cccc(N)c2)n1 | – | – | 43.6 s | 5.35 s |
